Measurements reported in publication PMC5218480 (PLoS ONE, 2017).

System: MV-4-11 cells
Experiment: Gene expression microarray analysis (Affymetrix PrimeView) and GSEA
Type: cell-based, human
Parameters: RFU PODN (11730768_x_at) / Fold change /veh PODN (11730768_x_at) / RFU LINC00158 (11744669_a_at) / Fold change /veh LINC00158 (11744669_a_at) / RFU DUSP10 (11751237_a_at) / Fold change /veh DUSP10 (11751237_a_at) / RFU ID3 (11757404_x_at) / Fold change /veh ID3 (11757404_x_at) / RFU PLEKHG5 (11737974_s_at) / Fold change /veh PLEKHG5 (11737974_s_at) / RFU LRRC4B (11730491_at) / Fold change /veh LRRC4B (11730491_at) / RFU GIMAP4 (11747438_a_at) / Fold change /veh GIMAP4 (11747438_a_at) / RFU KRT8 (11758183_x_at) / Fold change /veh KRT8 (11758183_x_at) / RFU CNN1 (11734310_a_at) / Fold change /veh CNN1 (11734310_a_at) / RFU VPS37D (11726825_at) / Fold change /veh VPS37D (11726825_at) / RFU C10orf10 (11716522_x_at) / Fold change /veh C10orf10 (11716522_x_at) / RFU KIR2DL2 /// KIR2DL4 /// KIR2DL5A /// KIR2DL5B /// KIR2DS1 /// KIR2DS2 /// KIR2DS3 /// KIR2DS4 /// KIR3DL3 /// KIR3DL3 /// KIR3DS1 (11738374_at) / Fold change /veh KIR2DL2 /// KIR2DL4 /// KIR2DL5A /// KIR2DL5B /// KIR2DS1 /// KIR2DS2 /// KIR2DS3 /// KIR2DS4 /// KIR3DL3 /// KIR3DL3 /// KIR3DS1 (11738374_at) / RFU C1QL1 (11718748_at) / Fold change /veh C1QL1 (11718748_at) / RFU TMPRSS4 (11747572_a_at) / Fold change /veh TMPRSS4 (11747572_a_at) / RFU HAMP (11756126_x_at) / Fold change /veh HAMP (11756126_x_at) / RFU RNFT2 (11725882_a_at) / Fold change /veh RNFT2 (11725882_a_at) / RFU NR4A2 (11747474_a_at) / Fold change /veh NR4A2 (11747474_a_at) / RFU ABCC12 (11746883_a_at) / Fold change /veh ABCC12 (11746883_a_at) / RFU TMEM136 (11760407_x_at) / Fold change /veh TMEM136 (11760407_x_at) / RFU CLDN22 /// WWC2 (11732394_at) / Fold change /veh CLDN22 /// WWC2 (11732394_at) / RFU HLA-DPB1 (11760878_x_at) / Fold change /veh HLA-DPB1 (11760878_x_at) / RFU SPINT1 (11716480_a_at) / Fold change /veh SPINT1 (11716480_a_at) / RFU GAP43 (11754022_s_at) / Fold change /veh GAP43 (11754022_s_at) / RFU A4GNT (11735810_at) / Fold change /veh A4GNT (11735810_at) / RFU PRB3 (11715151_x_at) / Fold change /veh PRB3 (11715151_x_at) / RFU TUBB4B (11761932_at) / Fold change /veh TUBB4B (11761932_at) / RFU CAPN14 (11732068_a_at) / Fold change /veh CAPN14 (11732068_a_at) / RFU TMCC2 (11721928_a_at) / Fold change /veh TMCC2 (11721928_a_at) / RFU IRGQ (11745062_a_at) / Fold change /veh IRGQ (11745062_a_at) / RFU FAM174B (11720279_a_at) / Fold change /veh FAM174B (11720279_a_at) / RFU TMPRSS4 (11748680_a_at) / Fold change /veh TMPRSS4 (11748680_a_at) / RFU FAM212B (11763350_a_at) / Fold change /veh FAM212B (11763350_a_at) / RFU PLEKHG5 (11743358_a_at) / Fold change /veh PLEKHG5 (11743358_a_at) / RFU ZSCAN30 (11745921_a_at) / Fold change /veh ZSCAN30 (11745921_a_at) / RFU CMKLR1 (11741424_a_at) / Fold change /veh CMKLR1 (11741424_a_at) / RFU LOC101060620 /// MAPK8IP1 (11723275_at) / Fold change /veh LOC101060620 /// MAPK8IP1 (11723275_at) / RFU SPTSSB (11747773_x_at) / Fold change /veh SPTSSB (11747773_x_at) / RFU PRSS12 (11739890_at) / Fold change /veh PRSS12 (11739890_at) / RFU BIN1 (11741810_x_at) / Fold change /veh BIN1 (11741810_x_at) / RFU WNT11 (11732464_a_at) / Fold change /veh WNT11 (11732464_a_at) / RFU C10orf10 (11716521_a_at) / Fold change /veh C10orf10 (11716521_a_at) / RFU C5orf56 (11738089_at) / Fold change /veh C5orf56 (11738089_at) / RFU CYB561 (11721691_x_at) / Fold change /veh CYB561 (11721691_x_at) / RFU ANKRD19P (11752326_a_at) / Fold change /veh ANKRD19P (11752326_a_at) / RFU OR2T12 /// OR2T33 /// OR2T8 (11738714_s_at) / Fold change /veh OR2T12 /// OR2T33 /// OR2T8 (11738714_s_at) / RFU VCAN (11748164_a_at) / Fold change /veh VCAN (11748164_a_at) / RFU JSRP1 (11732532_at) / Fold change /veh JSRP1 (11732532_at) / RFU KRTAP10-11 (11738290_x_at) / Fold change /veh KRTAP10-11 (11738290_x_at) / RFU MYO3A (11730013_a_at) / Fold change /veh MYO3A (11730013_a_at) / RFU EBF3 (11725865_a_at) / Fold change /veh EBF3 (11725865_a_at) / RFU CAMK2N1 (11719241_x_at) / Fold change /veh CAMK2N1 (11719241_x_at) / RFU C5orf56 (11738088_a_at) / Fold change /veh C5orf56 (11738088_a_at) / RFU OLFML3 (11715873_a_at) / Fold change /veh OLFML3 (11715873_a_at) / RFU LOC100653217 /// NTM (11731650_a_at) / Fold change /veh LOC100653217 /// NTM (11731650_a_at) / RFU MAPK11 (11762145_a_at) / Fold change /veh MAPK11 (11762145_a_at) / RFU FIZ1 (11724087_x_at) / Fold change /veh FIZ1 (11724087_x_at) / RFU OASL (11726364_x_at) / Fold change /veh OASL (11726364_x_at) / RFU SOX15 (11748057_x_at) / Fold change /veh SOX15 (11748057_x_at) / RFU CD79A (11719716_a_at) / Fold change /veh CD79A (11719716_a_at) / RFU HIST1H1D (11736915_at) / Fold change /veh HIST1H1D (11736915_at) / RFU CASKIN2 (11723855_a_at) / Fold change /veh CASKIN2 (11723855_a_at) / RFU LOC730098 (11760151_x_at) / Fold change /veh LOC730098 (11760151_x_at) / RFU OR4N2 (11742367_at) / Fold change /veh OR4N2 (11742367_at) / RFU PRRT2 (11749266_a_at) / Fold change /veh PRRT2 (11749266_a_at) / RFU SNX32 (11753110_a_at) / Fold change /veh SNX32 (11753110_a_at) / RFU CDHR5 (11726645_a_at) / Fold change /veh CDHR5 (11726645_a_at) / RFU RCAN1 (11760418_a_at) / Fold change /veh RCAN1 (11760418_a_at) / RFU FAM167A (11723789_a_at) / Fold change /veh FAM167A (11723789_a_at) / RFU FAM26E (11764081_at) / Fold change /veh FAM26E (11764081_at) / RFU ISYNA1 (11749810_s_at) / Fold change /veh ISYNA1 (11749810_s_at) / RFU ACY1 (11761880_at) / Fold change /veh ACY1 (11761880_at) / RFU 11764098_at / Fold change /veh 11764098_at / RFU SAMD14 (11745864_x_at) / Fold change /veh SAMD14 (11745864_x_at) / RFU NPB (11741838_a_at) / Fold change /veh NPB (11741838_a_at) / RFU TMPRSS6 (11731388_a_at) / Fold change /veh TMPRSS6 (11731388_a_at) / RFU KRTAP10-2 (11738614_at) / Fold change /veh KRTAP10-2 (11738614_at) / RFU ARHGAP8 /// PRR5-ARHGAP8 (11727945_x_at) / Fold change /veh ARHGAP8 /// PRR5-ARHGAP8 (11727945_x_at) / RFU KRTAP5-7 /// NADSYN1 (11734609_at) / Fold change /veh KRTAP5-7 /// NADSYN1 (11734609_at) / RFU RASL12 (11751679_a_at) / Fold change /veh RASL12 (11751679_a_at) / RFU CDKN2B (11736163_a_at) / Fold change /veh CDKN2B (11736163_a_at) / RFU PRF1 (11729649_at) / Fold change /veh PRF1 (11729649_at) / RFU, ZNF638 /// ZNF638-IT1 / Fold change vs veh, ZNF638 /// ZNF638-IT1 / RFU, PANK3 / Fold change vs veh, PANK3 / RFU, SH3YL1 / Fold change vs veh, SH3YL1 / RFU, ZEB2 / Fold change vs veh, ZEB2 / RFU, NRIP1 / Fold change vs veh, NRIP1 / RFU, PTTG1IP / Fold change vs veh, PTTG1IP / RFU, CAPN2 / Fold change vs veh, CAPN2 / RFU, MED14 / Fold change vs veh, MED14 / RFU, SNORA58 / Fold change vs veh, SNORA58 / RFU, C1orf63 / Fold change vs veh, C1orf63 / RFU, LRRFIP1 / Fold change vs veh, LRRFIP1 / RFU, NDUFAF7 / Fold change vs veh, NDUFAF7 / RFU, SLC12A2 / Fold change vs veh, SLC12A2 / RFU, IBTK / Fold change vs veh, IBTK / RFU, ESF1 / Fold change vs veh, ESF1 / Fold change vs veh, TMEM50B / RFU, TAOK1 / Fold change vs veh, TAOK1 / RFU, ACBD3 / Fold change vs veh, ACBD3 / RFU, TMA16 / Fold change vs veh, TMA16 / RFU, RWDD3 / Fold change vs veh, RWDD3 / RFU, BCAT1 / Fold change vs veh, BCAT1 / RFU, EDEM3 / Fold change vs veh, EDEM3 / RFU, TMEM33 / Fold change vs veh, TMEM33 / RFU, WDR75 / Fold change vs veh, WDR75 / RFU, AHCTF1 / Fold change vs veh, AHCTF1 / RFU, TFRC / Fold change vs veh, TFRC / RFU, ZDHHC17 / Fold change vs veh, ZDHHC17 / RFU, NOM1 / Fold change vs veh, NOM1 / RFU, ARL8B / Fold change vs veh, ARL8B / RFU, ZBTB11 / Fold change vs veh, ZBTB11 / RFU, TAMM41 / Fold change vs veh, TAMM41 / RFU, KIAA1704 /// LOC100996395 / Fold change vs veh, KIAA1704 /// LOC100996395 / RFU, ING1 / Fold change vs veh, ING1 / RFU, TRMT61B / Fold change vs veh, TRMT61B / RFU, FUBP3 / Fold change vs veh, FUBP3 / RFU, TP53 / Fold change vs veh, TP53 / RFU, TNKS2 / Fold change vs veh, TNKS2 / RFU, ZFP14 / Fold change vs veh, ZFP14 / RFU, ACTR2 / Fold change vs veh, ACTR2 / RFU, PPP3R1 / Fold change vs veh, PPP3R1 / RFU, PIK3R1 / Fold change vs veh, PIK3R1 / RFU, HNRNPA1 / Fold change vs veh, HNRNPA1 / RFU, RNF170 / Fold change vs veh, RNF170 / RFU, ZNF28 / Fold change vs veh, ZNF28 / RFU, RNGTT / Fold change vs veh, RNGTT / RFU, OGT / Fold change vs veh, OGT / RFU, BRD1 / Fold change vs veh, BRD1 / RFU, MARS / Fold change vs veh, MARS / RFU, ZNF655 / Fold change vs veh, ZNF655 / RFU, FAHD1 / Fold change vs veh, FAHD1 / RFU, BDP1 / Fold change vs veh, BDP1 / RFU, LRRCC1 / Fold change vs veh, LRRCC1 / RFU, ARID1A / Fold change vs veh, ARID1A / RFU, ZNF146 / Fold change vs veh, ZNF146 / RFU, ZNF330 / Fold change vs veh, ZNF330 / RFU, GPN3 / Fold change vs veh, GPN3 / RFU, C9orf123 / Fold change vs veh, C9orf123 / RFU, N4BP2L2 / Fold change vs veh, N4BP2L2 / RFU, ARFIP1 / Fold change vs veh, ARFIP1 / RFU, FAM179B / Fold change vs veh, FAM179B / RFU, BCL10 / Fold change vs veh, BCL10 / RFU, UHRF1BP1L / Fold change vs veh, UHRF1BP1L / RFU, BET1 / Fold change vs veh, BET1 / RFU, CNOT2 / Fold change vs veh, CNOT2 / RFU, ZNF268 / Fold change vs veh, ZNF268 / Fold change vs veh, ZNF507 / RFU, DGCR2 / Fold change vs veh, DGCR2 / RFU, WDSUB1 / Fold change vs veh, WDSUB1 / Fold change vs veh, HSP90B1 /// MIR3652 / RFU, ADSS / Fold change vs veh, ADSS / RFU, GK / Fold change vs veh, GK / RFU, ZNF148 / Fold change vs veh, ZNF148 / RFU, TAF9 / Fold change vs veh, TAF9 / RFU, SLC1A5 / Fold change vs veh, SLC1A5 / RFU, SLMO2 / Fold change vs veh, SLMO2 / RFU, ABCC4 / Fold change vs veh, ABCC4 / RFU, LOC101060439 /// RAP1B / Fold change vs veh, LOC101060439 /// RAP1B / RFU, RFX7 / Fold change vs veh, RFX7 / RFU, GTPBP10 / Fold change vs veh, GTPBP10 / RFU, CNEP1R1 / Fold change vs veh, CNEP1R1 / RFU, BIVM-ERCC5 /// ERCC5 / Fold change vs veh, BIVM-ERCC5 /// ERCC5 / RFU, ILF3 / Fold change vs veh, ILF3 / RFU 11762660_at / Fold change /veh 11762660_at / RFU VCAN (11757783_s_at) / Fold change /veh VCAN (11757783_s_at) / RFU DDX43 (11728927_at) / Fold change /veh DDX43 (11728927_at) / RFU KRT8 (11758188_x_at) / Fold change /veh KRT8 (11758188_x_at) / RFU NKD1 (11759106_at) / Fold change /veh NKD1 (11759106_at) / RFU SRD5A1 (11742802_a_at) / Fold change /veh SRD5A1 (11742802_a_at) / RFU TPSAB1 /// TPSB2 (11721975_s_at) / Fold change /veh TPSAB1 /// TPSB2 (11721975_s_at) / RFU GSTM3 (11746129_a_at) / Fold change /veh GSTM3 (11746129_a_at) / RFU IL23R (11737362_x_at) / Fold change /veh IL23R (11737362_x_at) / RFU TMEM51 (11727254_a_at) / Fold change /veh TMEM51 (11727254_a_at) / RFU PIWIL2 (11732686_x_at) / Fold change /veh PIWIL2 (11732686_x_at) / RFU ORM1 (11744905_x_at) / Fold change /veh ORM1 (11744905_x_at) / RFU CCDC152 (11743942_at) / Fold change /veh CCDC152 (11743942_at) / RFU ECM1 (11717891_a_at) / Fold change /veh ECM1 (11717891_a_at) / RFU IL23R (11748794_a_at) / Fold change /veh IL23R (11748794_a_at) / RFU TNFAIP8L3 (11732012_x_at) / Fold change /veh TNFAIP8L3 (11732012_x_at) / RFU MBOAT4 (11741988_at) / Fold change /veh MBOAT4 (11741988_at) / RFU 11764193_at / Fold change /veh 11764193_at / RFU TMEM53 (11763286_at) / Fold change /veh TMEM53 (11763286_at) / RFU MAGEB2 (11727129_at) / Fold change /veh MAGEB2 (11727129_at) / RFU TMEM200A (11744735_a_at) / Fold change /veh TMEM200A (11744735_a_at) / RFU CCDC152 (11751479_a_at) / Fold change /veh CCDC152 (11751479_a_at) / RFU FAM211A (11726209_a_at) / Fold change /veh FAM211A (11726209_a_at) / RFU RGS16 (11746705_a_at) / Fold change /veh RGS16 (11746705_a_at) / RFU VCAN (11755009_s_at) / Fold change /veh VCAN (11755009_s_at) / RFU RHOB (11743442_s_at) / Fold change /veh RHOB (11743442_s_at) / RFU RGS16 (11720943_a_at) / Fold change /veh RGS16 (11720943_a_at) / RFU RGS16 (11720944_at) / Fold change /veh RGS16 (11720944_at) / RFU, VPS4B / Fold change vs veh, VPS4B / RFU, CREB1 / Fold change vs veh, CREB1 / RFU, DNAJC13 / Fold change vs veh, DNAJC13 / RFU, GNAQ / Fold change vs veh, GNAQ / RFU, CDK5R1 / Fold change vs veh, CDK5R1 / RFU, ZRANB3 / Fold change vs veh, ZRANB3 / RFU, CUL4A / Fold change vs veh, CUL4A / RFU, CCNY / Fold change vs veh, CCNY / RFU, UFL1 / Fold change vs veh, UFL1 / RFU, COG3 / Fold change vs veh, COG3 / RFU, DIAPH2 / Fold change vs veh, DIAPH2 / RFU, SKA2 / Fold change vs veh, SKA2 / RFU, AFF3 / Fold change vs veh, AFF3 / RFU, LMF1 / Fold change vs veh, LMF1 / RFU, IPO11 / Fold change vs veh, IPO11 / RFU, DFFB / Fold change vs veh, DFFB / RFU, FOXP1 / Fold change vs veh, FOXP1 / RFU, CARD8 / Fold change vs veh, CARD8 / RFU, STRN3 / Fold change vs veh, STRN3 / RFU, ADK / Fold change vs veh, ADK / RFU, RASSF2 / Fold change vs veh, RASSF2 / RFU, WIPF1 / Fold change vs veh, WIPF1 / RFU, LARP1B / Fold change vs veh, LARP1B / RFU, RASA1 / Fold change vs veh, RASA1 / RFU, RB1 / Fold change vs veh, RB1 / RFU, PPFIA1 / Fold change vs veh, PPFIA1 / RFU, MAT2A / Fold change vs veh, MAT2A / RFU, CCT5 / Fold change vs veh, CCT5 / RFU, WDR92 / Fold change vs veh, WDR92 / RFU, CUX1 / Fold change vs veh, CUX1 / RFU, TTC7A / Fold change vs veh, TTC7A / RFU, TMEM135 / Fold change vs veh, TMEM135 / RFU, DEPTOR / Fold change vs veh, DEPTOR / RFU, CPM / Fold change vs veh, CPM / RFU, DNAJB6 / Fold change vs veh, DNAJB6 / RFU, CACNA2D3 / Fold change vs veh, CACNA2D3 / RFU, DTX4 / Fold change vs veh, DTX4 / RFU, TFCP2 / Fold change vs veh, TFCP2 / RFU, GMCL1 /// GMCL1P1 / Fold change vs veh, GMCL1 /// GMCL1P1 / RFU, AEBP2 / Fold change vs veh, AEBP2 / RFU, SNHG1 /// SNORD22 /// SNORD25 /// SNORD26 /// SNORD27 /// SNORD28 /// SNORD29 /// SNORD31 / Fold change vs veh, SNHG1 /// SNORD22 /// SNORD25 /// SNORD26 /// SNORD27 /// SNORD28 /// SNORD29 /// SNORD31 / Fold change (Aza/veh), C12orf56 (ProbeSet 11735607_a_at) / Fold change (ACY-1035/veh), C12orf56 (ProbeSet 11735607_a_at) / Fold change (Aza/veh), FGFR1OP (ProbeSet 11751329_s_at) / Fold change (ACY-1035/veh), FGFR1OP (ProbeSet 11751329_s_at) / Fold change (Aza/veh), VPS36 (ProbeSet 11739960_a_at) / Fold change (ACY-1035/veh), VPS36 (ProbeSet 11739960_a_at) / RFU SYPL1 (11715823_x_at) / Fold change /veh SYPL1 (11715823_x_at) / RFU IGFBP7 (11715501_s_at) / Fold change /veh IGFBP7 (11715501_s_at) / RFU REEP3 (11722064_at) / Fold change /veh REEP3 (11722064_at) / RFU IGLL1 (11728026_x_at) / Fold change /veh IGLL1 (11728026_x_at): dose or concentration left out as unconfirmed
Conditions: MV-4-11 cells, 48 hours

For `Nc1ccc(-c2cccs2)cc1NC(=O)c1ccc2c(c1)cc(C1CC1)n2CCN1CCOCC1` [ACY-1035], the “RFU CAPN14 (11732068_a_at)” value was 10.99 RFU.
